This is an account of results in US9421193B2, “Benzothiazole derivatives and a use thereof for the treatment of cancer” (Korea Institute of Radiological & Medical Sciences, priority 2014, dated 2016).

In general, IC50 refers to the concentration at which inhibition is half-maximal.

The subject of assay [1] is non-small cell lung cancer cell strain H460. As to the kind of experiment: LDH release. Format: cell-based, human. As to conditions: 50 uM, 0 to 48 hours, compared to untreated. How it is done: After incubation of the non-small cell lung cancer cell strains A549 and H460 treated with the compound PB01 or PB11 for 8, 24, and 48 hours, only supernatants were recovered the culture products. The activity of lactate dehydrogenase (LDH) may be measured by detecting an amount of LDH released from the cell cytosol with a Cytotoxicity Detection Kit (available from Roche Applied Science, Indianapolis, Ind.). The amounts of LDH release induced by the compound PB01 or PB11 were calculated as a percentage amount of extracellular LDH released from the cells with respect to a total amount of LDH as a sum of the extracellular released LDH and the intracellular LDH remaining in the cells.

Assay [2] has the same test system. Put plainly: Cancer cell growth inhibition, WST-1 cell viability. The settings on record: compared among cell strains. The format is cell-based, human. How it is done:
(§1) Cancer cell growth inhibitory effects of the compounds PB01 and PB11 of Examples 5 and 3 identified as PPAR-γ ligands were evaluated. Growth inhibitory effects of the compounds PB01 and PB11 of Examples 5 and 3 on various cancer cells, including human non-small cell lung cancer cell strains (A549, H460), breast cancer cell strains (MCF-7, T-470), colorectal cancer cell strains (LoVo, SW480), and leukocytes cancer cell strains (HL-60, K562) (American Type Culture Collection, Manassas, Va.), were evaluated using WST-1 method. About 5×10^3 cells per well of each type of cancer cell strains were portioned into a 96-well plate, and incubated with different concentrations of each of the compounds PB01 and PB11 of Examples 5 and 3 in 200 ul of a culture solution for 24 hours, 48 hours, and 72 hours. After the incubation for the different durations, 10 ul of a WST-1 solution was added to each well, followed by incubation at about 37° C. for about 1 hour. Absorbance at 450 nm was measured to determine cell viability.

Assay [3] deals with non-small cell lung cancer cell strain A549. The assay is described as above. Format: cell-based, human. The settings on record: compared among cell strains. How it is done:
as §1

Assay [4] deals with non-small cell lung cancer cell strain H460. As to the kind of experiment: Trypan blue live cell count (cell viability). The settings on record: for cancer cell apoptosis effect: 50 μM; for cancer cell apoptosis effect with respect to concentration and incubation time: FIGS. 3A and 3B, PB12 at 150 μM; for IC50: Homo sapiens, NCI-H460, time taken to reach the IC50 48 hours. The format is cell-based, human. How it is done: (§2) Whether the cancer cell growth inhibitory effects of the compounds PB01 and PB11 on the non-small cell lung cancer cell strains is associated with apoptosis was investigated. The cell growth inhibitory effects were evaluated by a trypan blue assay, and cell shapes were observed using an inverted microscope. The shapes of cell nuclei were observed via Hoeschst 33342 staining. Degrees of inducing apoptosis were quantized by flow cytometry (fluorescent activated cell sorting (FACS)).
(§3) After about 5×10^3 cells per well of each of the human non-small cell lung cancer cell strains A549 and H460 were portioned into a 96-well plate, about 10 uM to about 50 uM of the compounds PB01 or PB11 in 200 ul of culture solution were added into the wells, and incubated for about 8 to 72 hours. Cells were collected from the incubation product, and centrifuged at about 2,000 rpm for 5 minutes. After removing a supernatant, the remaining cells were mixed with 1 mL of phosphate-buffered saline (PBS) to obtain a cell suspension, which was then mixed with an equal amount of 0.5% trypan blue (Gibco BRL), followed by treatment for about 1 minute. The number of live cells was counted using a phase-contrast) microscope. The live cell counting was repeated three times, and an average live cell count and a standard error were calculated using a Microsoft Excel program. Cell viability graphs with respect to compound concentration and incubation time were obtained. The same experiment was performed with 50 μM of the compound PB01, PB11 50 μM of the compound PB11, or 150 μM of the compound PB12 150 μM, and cell viability graphs with respect to compound concentration and incubation time were obtained.

In assay [5] the test system is non-small cell lung cancer cell strain A549. As to the kind of experiment: Trypan blue live cell count (cell viability). Format: cell-based, human. The settings on record: for cancer cell apoptosis effect: 50 μM; for cancer cell apoptosis effect with respect to concentration and incubation time: 10-50 uM, 8 to 72 hours, FIG. 3A; for IC50: Homo sapiens, time taken to reach the IC50 48 hours. As for the experimental part:
as §2, §3

Assay [6] relates to non-cancer lung cell strain MRC-9. Put plainly: Cell growth inhibition in non-cancer lung cells. As to conditions: MRC-9 non-cancer lung cells. The format is cell-based.
The test system of assay [7] is non-cancer lung cell strain MRC-5. Put plainly: Cell growth inhibition in non-cancer lung cells. Format: cell-based. As to conditions: MRC-5 non-cancer lung cells.
Assay [8] has as its system non-small cell lung cancer cell strain H460. Put plainly: Radiation sensitivity measurement, colony formation. The format is cell-based, human. The settings on record: 14 days. How it is done:
About 500 cells of non-small cell lung cancer cell strain H460 were floated on each of 60-mm cell culture plates, and then incubated for about 24 hours. After the cells were stably fixed on the bottom of the cell culture plate, the cells were treated with ciglitazone (10 μM), PB01 (10 μM), or PB11 (5 μM, 10 μM), cultured for about 24 hours, and then irradiated with γ-radiation (3.2 Gy/min, Gammacell 3000; Atomic Energy of Canada, Ltd., Mississauga, ON, Canada) at doses of 2 Gy, 4 Gy, and 6 Gy. After incubation for 14 days, followed staining using a 1% crystal violet staining reagent solution (in methanol) to selectively count colonies having a diameter of about 0.5 mm or larger. SF (surviving fraction)=number of colonies formed/number of cells seeded×plating efficiency of the control group

`COC1CCC(C(=O)Nc2ccc3nc(SCc4c(C)noc4C)sc3c2)CC1` (centres unmarked) [PB01]: the “amount of extracellular LDH released” value in assay [1] was “increased with time”. Besides, the “cancer cell growth inhibition” value in assay [2] and in assay [3] was “most effective” throughout. Besides, the “cancer cell apoptosis effect” value in assay [4] and in assay [5] was “remarkable cancer cell apoptosis effects” each time. The “cancer cell apoptosis effect with respect to concentration and incubation time” value in assay [4] was “improved cancer cell apoptosis effects with increases in concentration and incubation time”; in assay [5], “improved cancer cell apoptosis effects with increases in concentration and incubation time”. In addition, the IC50 in assay [4] and in assay [5] was 50 µM each time. The “cell growth inhibitory effect” value in assay [6] and in assay [7] was “nearly zero” each time. For the same compound, the “effect as radiation sensitizer” value in assay [8] (10 μM in combination with radiation at a dose of 4 Gy) was “significant effect as radiation sensitizers”.
For `Cc1noc(C)c1CSc1nc2ccc(NC(=O)C3CCC(=O)CC3)cc2s1` [PB11], in assay [1], the “amount of extracellular LDH released” value is on record as “increased with time”. In addition, in assay [4], the “cancer cell apoptosis effect” value is listed as “remarkable cancer cell apoptosis effects”; the “cancer cell apoptosis effect with respect to concentration and incubation time” value is “improved cancer cell apoptosis effects with increases in concentration and incubation time”; the IC50 was determined as 50 µM. In addition, in assay [5], the “cancer cell apoptosis effect” value is “remarkable cancer cell apoptosis effects”; the “cancer cell apoptosis effect with respect to concentration and incubation time” value is “improved cancer cell apoptosis effects with increases in concentration and incubation time”; the half-inhibitory concentration (IC50) was 50 µM. Also, the “effect as radiation sensitizer” value in assay [8] (5 μM in combination with radiation at a dose of 4 Gy) is on record as “significant effect as radiation sensitizers”.
